Here are results for eleven molecules from publication PMC8587043, “An Investigation into the Interaction between Double Hydroxide-Based Antioxidant Benzophenone Derivatives and Cyclooxygenase 2” (Molecules, 2021).

One assay concerns EA.hy926 cells. The experiment in a line: Protective effect against H2O2-induced oxidative damage, MTT assay. The class given is cell-based, human. To be noted: for EC50: Homo sapiens, EA.hy 926, 4 h, protection against H2O2-induced damage (400 µmol·L^−1, 4 h), n = 3, mean ± SD; for protection rate compared with positive controls (fenofibrate and quereetin): statistical comparison. How it is done:
Hydrogen peroxide (H2O2), a small molecule and functions as oxidative stress and a second messenger which contributes to cell damage or death, could directly induce inflammation in several cell lines. H2O2-induced cell damage is a commonly used model for antioxidant activity evaluation. […] Thus, the concentration of 400 µmol·L^−1 at 4 h was chosen as the model.
Compound SC2 stock solutions were prepared in DMSO. The stock solutions were diluted with FBS free DMEM to different target concentrations (DMSO concentrations ≤ 0.5% v:v). Cells (100 μL, 2 × 10^5 cells∙mL^−1) were seeded on 96-well plates and cultured for 24 h. The medium was then replaced with fresh media containing H2O2 with different concentrations (0, 100, 200, 300, 400, 500, and 600 μmol·L^−1 in FBS free DMEM) and compound SC2 (50, 40, 30, 20, 10 µmol·L^−1), which were transferred to the incubator and cultured for additional time (2, 4, and 6 h). The medium was then replaced with 100 μL of FBS free DMEM and MTT (10 μL, 5 mg·mL^−1 in PBS) and after 4 h the medium was replaced with DMSO (100 μL). A microplate reader (SpectraMaxPlus384, Molecular Devices, United States) was used to record the absorbance at 490 nm for each well of the plates. Cell viability was measured via MTT assay. Survival rate (%) = (Asample group/Acontrol group) × 100%.
Cells (100 μL, 2 × 10^5 cells·mL^−1) were seeded in 96-well plates for 24 h. Cells were treated with different groups and cell viability was measured via MTT assay. The protection rates to oxidative damage were determined and EC50 values were calculated. The protection rates to cells were calculated using the following formula: Protection rate (%) = (Apretreatment group − Amodel group)/(Acontrol group − Amodel group) × 100%.
In general terms: Formazan colour is commonly taken as a measure of viable cells.

A further assay has as its target T1, COX2 (Homo sapiens, UniProt P35354).
T1 construct: purchased Sino Biological Co. (Beijing, China)
T1 sequence (P35354 18-604): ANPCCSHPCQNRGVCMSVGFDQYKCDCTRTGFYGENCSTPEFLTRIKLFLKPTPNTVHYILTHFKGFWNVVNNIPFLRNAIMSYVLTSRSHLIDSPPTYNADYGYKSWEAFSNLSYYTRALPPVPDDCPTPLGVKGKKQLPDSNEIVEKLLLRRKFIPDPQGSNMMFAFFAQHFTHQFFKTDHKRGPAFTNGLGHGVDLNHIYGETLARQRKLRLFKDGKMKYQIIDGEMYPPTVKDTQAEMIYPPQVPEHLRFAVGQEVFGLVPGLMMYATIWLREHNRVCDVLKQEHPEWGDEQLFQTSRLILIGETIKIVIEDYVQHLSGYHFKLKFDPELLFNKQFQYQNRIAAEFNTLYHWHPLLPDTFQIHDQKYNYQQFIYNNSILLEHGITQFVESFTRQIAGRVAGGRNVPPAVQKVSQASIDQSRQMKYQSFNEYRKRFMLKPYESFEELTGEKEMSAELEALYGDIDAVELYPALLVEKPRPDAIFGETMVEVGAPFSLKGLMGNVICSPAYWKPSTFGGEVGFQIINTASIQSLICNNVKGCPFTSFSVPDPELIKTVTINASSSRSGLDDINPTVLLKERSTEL
The experiment in a line: Fluorescence quenching of COX2 (Stern-Volmer, double logarithm, thermodynamic parameters). To be noted: for Kq (bimolecular quenching constant): Kq = Ksv/τ0. The class given is binding. From the text: The emitted fluorescence spectra of COX2 solution (6.0 × 10^−8 mol∙L^−1) without and with an increasing concentration of compounds DB2, SC2 or YB2 (7.5 × 10^−6 mol∙L^−1 to 4.5 × 10^−5 mol∙L^−1) at different temperatures are shown in Figure 4a,b, Figure 4c,d or Figure 4e,f, respectively. […] The quenching constant Kq and Stern–Volmer constant Ksv at different temperatures are usually used to identify the quenching mechanisms, static or dynamic. The former is caused by ground-state complex formation, the latter is diffusion. For the static quenching mechanism, the quenching constant decreases with temperature increase. In this part, we calculated the Kq and Ksv values by using a universally accepted Stern–Volmer equation [38]:(1) F0/F=1+Kqτ0[Q]=1+Ksv[Q] where F0 and F are the protein fluorescence intensities in the absence and the presence of quencher (compounds DB2, SC2 or YB2), respectively. Kq = Ksv/ τ0 . τ0 is the fluorescence lifetime of the fluorophore without the quencher ([…]). [Q] is the concentration of quencher. The Stern-Volmer plots of COX2 fluorescence quenching by compounds DB2, SC2 or YB2 are presented in Figure 5a, Figure 5b or Figure 5c, respectively. According to Table 1, the Ksv and Kq values for all three systems (COX2-DB2, COX2-SC2 and COX2-YB2) decreased with increasing temperature. Therefore, we considered that the quenching was static quenching. To further verify that the system was static quenching, dynamic quenching was assumed first.
For the static quenching, we can use the double logarithm equation to obtain the binding constant (KA) and the number of binding sites per protein (n):(2) lgF0−F/F=lgKA+nlg[Q]
There are four main kinds of non-covalent forces between drugs and proteins. These are electrostatic force, hydrogen bonding, hydrophobic force and van der Waals force. The kind of interaction between compounds DB2, SC2 or YB2 and COX2 can be obtained from thermodynamic parameters, including the free energy change (ΔG), enthalpy change (ΔH) and entropy change (ΔS) of the reaction. The three thermodynamic parameters can be obtained according to the published equations [42, 44]:(3) ΔG=−RTlnK (4) lnK2/K1=ΔH(1/T1−1/T2)×1/R (5) ΔG=ΔH−TΔS
The fluorescence intensity of the system was measured with a 1.0 cm quartz cell. COX2 protein was dissolved in PBS for a final concentration of 6.0 × 10^−8 mol∙L^−1. DB2, SC2 or YB2 stock solutions were prepared in singleton at 1.5 × 10^−3 mol∙L^−1 in PBS containing 0.1% DMSO. 2.0 mL COX2 solution was separately titrated by continuing additions of 10 μL compounds DB2, SC2 or YB2 solution). After incubation at 298 K or 310 K, fluorescence quenching spectra were recorded in the region 325-450 nm at a scan rate of 1200 nm∙min^−1. The local environment of Tyr and Trp residues was quite sensitive at 280 nm, so the excitation wavelength was set at this wavelength. Typically, 280 nm is also used to measure the changes in protein tertiary structure. The slit widths of emission and excitation were both fixed at 10 nm. To observe spectra behaviors of Tyr and Trp groups of COX2, the wavelength interval between the excitation and emission wavelengths (Δλ) was set as 15 nm and 60 nm, respectively. Three-dimensional fluorescence spectroscopy was obtained for an excitation range of 200–300 nm and an emission range of 325–400 nm. Appropriate buffer solutions, determined under the same operation conditions, were used as blanks. Each spectrum was recorded three times.

`CCCCc1ccc(C(=O)c2cc(O)c(O)cc2Br)cc1` [DB1] returned an EC50 in the assay on EA.hy926 cells of 7080 ± 92.6 nM.
The same measure, in the same setting: as for `CCCCc1ccc(C(=O)c2cc(O)c(O)cc2Cl)cc1` [DC1], the figure is 3310 ± 242 nM.
Take `CCCCc1ccc(C(=O)c2c(Cl)cc(O)c(O)c2O)cc1` [DC2]: in the assay on EA.hy926 cells, the response was half-maximal at 1550 ± 924 nM (EC50); the “protection rate compared with positive controls (fenofibrate and quereetin)” value is given as “no significant difference”.
With `O=c1c(O)c(-c2ccc(O)c(O)c2)oc2cc(O)cc(O)c12` [Quereetin, quercetin, reference compound], the midpoint of the response in the assay with EA.hy926 cells, the EC50, lay at 7980 ± 1230 nM.
As for `CC(C)(C)c1ccc(C(=O)c2cc(O)c(O)cc2Br)cc1` [SB1], in the assay with EA.hy926 cells, the EC50 amounted to 12 ± 4.8 nM; the “protection rate compared with positive controls (fenofibrate and quereetin)” value is reported as “no significant difference”.
In the same order, the values of `CC(C)(C)c1ccc(C(=O)c2c(Br)cc(O)c(O)c2O)cc1` [SB2] are 25.2 ± 12.2 nM and “no significant difference”.
In the same order, the values of `CC(C)(C)c1ccc(C(=O)c2cc(O)c(O)cc2Cl)cc1` [SC1] are 1910 ± 521 nM and “no significant difference”.
In the assay with EA.hy926 cells, `CC(C)Cc1ccc(C(=O)c2cc(O)c(O)cc2Br)cc1` [YB1] registered an EC50 of 8510 ± 957 nM.
Take `CC(C)Cc1ccc(C(=O)c2cc(O)c(O)cc2Cl)cc1` [YC1]: the half-maximal effective concentration (EC50) in the assay on EA.hy926 cells was 1910 ± 823 nM. Compared with the last molecule, the EC50 is about 4.5-fold lower.
As to `CC(C)Cc1ccc(C(=O)c2c(Cl)cc(O)c(O)c2O)cc1` [YC2], in the assay with EA.hy926 cells, the EC50 worked out at 3850 ± 925 nM; the “protection rate compared with positive controls (fenofibrate and quereetin)” value is “no significant difference”.
For “[3-isobutyl-4-methoxy-5 -(pyrrolidine-1-carbonyl)-phenyl]-butyric acid ethyl ester [Control compound, reference compound]”, on COX2 (298 K), the “KA (binding constant)” value turned out to be 4436.3 ± 718.24 L/mol, the “Ksv (Stern-Volmer quenching constant)” value is on record as 1.71 ± 0.297 ×10^4 L∙mol^−1, the “n (number of binding sites per protein)” value worked out at 0.947 ± 0.116 and the “Kq (bimolecular quenching constant)” value was 1.71 ± 0.297 ×10^12 L∙mol^−1∙S^−1. Also, at COX2 (310 K), the “KA (binding constant)” value is 1417.0 ± 92.261 L/mol, the “Ksv (Stern-Volmer quenching constant)” value is 1.05 ± 0.157 ×10^4 L∙mol^−1, the “n (number of binding sites per protein)” value is 0.785 ± 0.0195 and the “Kq (bimolecular quenching constant)” value is listed as 1.05 ± 0.157 ×10^12 L∙mol^−1∙S^−1.

As a reminder, the EC50 is the concentration giving half of the maximal effect. High values mean a need for much substance, low ones an effect from little substance.
